Measurements published in patent US20180201592A1, “2-AMINO-1,3,4-THIADIAZINE AND 2-AMINO-1,3,4-OXADIAZINE BASED ANTIFUNGAL AGENTS” (F2G Limited, priority 2015, published 2018).

Columns and labels:
Conditions in all cases: banded MIC grade
[1] = tested on: Aspergillus niger; test: Minimum inhibitory concentration, YAG medium; format: cell-based
Procedure, shortened: (§1)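 Twofold aqueous dilution series, prepared from a DMSO stock (5 mg/mL), were inoculated with Aspergillus spp. spores; incubation lasted 24 hrs at 35° C before OD 485 nm readings.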

[2] = tested on: Aspergillus terreus; test: Minimum inhibitory concentration, YAG medium; format: cell-based
Procedure, shortened: as §1

[3] = tested on: Aspergillus flavus; test: Minimum inhibitory concentration, YAG medium; format: cell-based
Procedure, shortened: as §1

[4] = tested on: C. parapsilosis; test: Minimum inhibitory concentration, RPMI medium; format: cell-based
Procedure, shortened: (§2)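 Incubated at 35° C for 24-48 hrs in RPMI 1640 with twofold water dilutions of compound (from 5 mg/mL stock in DMSO); absorbance at 485 nm indicated growth.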

[5] = tested on: C. tropicalis; test: Minimum inhibitory concentration, RPMI medium; format: cell-based
Procedure, shortened: as §2

[6] = tested on: C. albicans; test: Minimum inhibitory concentration, RPMI medium; format: cell-based
Procedure, shortened: as §2

[7] = tested on: A. terreus 49; test: Minimum inhibitory concentration, YAG medium; format: cell-based, Aspergillus terreus
Procedure, shortened: as §1

[8] = tested on: A. fumigatus 210; test: Minimum inhibitory concentration, YAG medium; format: cell-based, Aspergillus fumigatus
Procedure, shortened: (§3)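 MICs (mg/L) reflect >70% inhibition of OD485 growth versus untreated control after 24 hrs at 35° C in YAG medium, spore inoculum 1-2×10^4 cfu/mL, drug range 50-0.05 mg/L.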

[9] = tested on: Aspergillus fumigatus; test: Minimum inhibitory concentration, YAG medium; format: cell-based
Procedure, shortened: as §3

Compound | MIC grade, A. NIGER, YAG media [1] | MIC grade, A. TERREUS, YAG media [2] | MIC grade, A. FLAVUS, YAG media [3] | MIC grade, C. PARAPSILOSIS, RPMI media [4] | MIC grade, C. TROPICALIS, RPMI media [5] | MIC grade, C. ALBICANS, RPMI media [6] | MIC grade, A. TERREUS 49, YAG media [7] | MIC grade, A. FUMIGATUS 210, YAG media [8] | MIC grade, A. FUMIGATUS, YAG media [9]
COc1ccc(CCCOCCC2=NN=C(N)SC2)cc1 | 2 (2: 1-5 mg/L) | 2 (2: 1-5 mg/L) | 2 (2: 1-5 mg/L) | 3 (3: 1-5 mg/L) | 2 (2: 5-20 mg/L) | 2 (2: 5-20 mg/L) | 2 (2: 1-5 mg/L) | 2 (2: 1-5 mg/L) | 2 (2: 1-5 mg/L)
NC1=NN=C(CCOc2ccccc2)CS1 | 3 (3: 0.2-1 mg/L) | 4 (4: <0.2 mg/L) | 3 (3: 0.2-1 mg/L) | 4 (4: <1 mg/L) | 2 (2: 5-20 mg/L) | 3 (3: 1-5 mg/L) | 3 (3: 0.2-1 mg/L) | 4 (4: <0.2 mg/L) | 4 (4: <0.2 mg/L)
CCOC(=O)CCCCCC1=NN=C(N)SC1 | 4 (4: <0.2 mg/L) | 4 (4: <0.2 mg/L) | 4 (4: <0.2 mg/L) | 4 (4: <1 mg/L) | 3 (3: 1-5 mg/L) | 4 (4: <1 mg/L) | 4 (4: <0.2 mg/L) | 4 (4: <0.2 mg/L) | 3 (3: 0.2-1 mg/L)
NC1=NN=C(CCCCc2cc3ccccc3o2)CS1 | 3 (3: 0.2-1 mg/L) | 4 (4: <0.2 mg/L) | 4 (4: <0.2 mg/L) | 4 (4: <1 mg/L) | 3 (3: 1-5 mg/L) | 3 (3: 1-5 mg/L) | 3 (3: 0.2-1 mg/L) | 3 (3: 0.2-1 mg/L) | 3 (3: 0.2-1 mg/L)
NC1=NN=C(CCCCc2ccccc2)CS1 | 4 (4: <0.2 mg/L) | 4 (4: <0.2 mg/L) | 4 (4: <0.2 mg/L) | 4 (4: <1 mg/L) | 2 (2: 5-20 mg/L) | 2 (2: 5-20 mg/L) | 4 (4: <0.2 mg/L) | 4 (4: <0.2 mg/L) | 4 (4: <0.2 mg/L)
CCCCOCCC1=CNN=C(N)S1 | 1 (1: ≥5 mg/L) | 2 (2: 1-5 mg/L) | 2 (2: 1-5 mg/L) | 1 (1: ≥20 mg/L) | 1 (1: ≥20 mg/L) | 1 (1: ≥20 mg/L) | 2 (2: 1-5 mg/L) | 2 (2: 1-5 mg/L) | 2 (2: 1-5 mg/L)
COCCCCCCCC1=NN=C(N)SC1 | 4 (4: <0.2 mg/L) | 4 (4: <0.2 mg/L) | 4 (4: <0.2 mg/L) | 4 (4: <1 mg/L) | 4 (4: <1 mg/L) | 4 (4: <1 mg/L) | 4 (4: <0.2 mg/L) | 4 (4: <0.2 mg/L) | 4 (4: <0.2 mg/L)
NC1=NN=C(COc2ccccc2)CS1 | 3 (3: 0.2-1 mg/L) | 3 (3: 0.2-1 mg/L) | 4 (4: <0.2 mg/L) | 4 (4: <1 mg/L) | 2 (2: 5-20 mg/L) | 2 (2: 5-20 mg/L) | 3 (3: 0.2-1 mg/L) | 4 (4: <0.2 mg/L) | 4 (4: <0.2 mg/L)
CCCCCCOCCC1=NN=C(N)SC1 | 4 (4: <0.2 mg/L) | 4 (4: <0.2 mg/L) | 4 (4: <0.2 mg/L) | 4 (4: <1 mg/L) | 3 (3: 1-5 mg/L) | 4 (4: <1 mg/L) | 4 (4: <0.2 mg/L) | 4 (4: <0.2 mg/L) | 4 (4: <0.2 mg/L)
NC1=NN=C(CCCCC(=O)Nc2ccccc2)CS1 | 2 (2: 1-5 mg/L) | 2 (2: 1-5 mg/L) | 3 (3: 0.2-1 mg/L) | 2 (2: 5-20 mg/L) | 1 (1: ≥20 mg/L) | 1 (1: ≥20 mg/L) | 2 (2: 1-5 mg/L) | 3 (3: 0.2-1 mg/L) | 3 (3: 0.2-1 mg/L)
COC(=O)CC1=NN=C(N)SC1 | 2 (2: 1-5 mg/L) | 2 (2: 1-5 mg/L) | 2 (2: 1-5 mg/L) | 2 (2: 5-20 mg/L) | 1 (1: ≥20 mg/L) | 1 (1: ≥20 mg/L) | 2 (2: 1-5 mg/L) | 2 (2: 1-5 mg/L) | 2 (2: 1-5 mg/L)
COc1ccc(C2=NN=C(N)SC2)cc1 | 2 (2: 1-5 mg/L) | 3 (3: 0.2-1 mg/L) | 2 (2: 1-5 mg/L) | 1 (1: ≥20 mg/L) | 1 (1: ≥20 mg/L) | 1 (1: ≥20 mg/L) | 3 (3: 0.2-1 mg/L) | 2 (2: 1-5 mg/L) | 2 (2: 1-5 mg/L)
NC1=NN=C(CCOCCCc2ccccc2)CS1 | 4 (4: <0.2 mg/L) | 4 (4: <0.2 mg/L) | 4 (4: <0.2 mg/L) | 4 (4: <1 mg/L) | 3 (3: 1-5 mg/L) | 4 (4: <1 mg/L) | 4 (4: <0.2 mg/L) | 4 (4: <0.2 mg/L) | 4 (4: <0.2 mg/L)
NC1=NN=C(CCCCCC(=O)O)CS1 | 2 (2: 1-5 mg/L) | 2 (2: 1-5 mg/L) | 2 (2: 1-5 mg/L) | 1 (1: ≥20 mg/L) | 1 (1: ≥20 mg/L) | 1 (1: ≥20 mg/L) | 2 (2: 1-5 mg/L) | 2 (2: 1-5 mg/L) | 2 (2: 1-5 mg/L)
NC1=NN=C(CCCCCCCOc2ccccc2)CS1 | 4 (4: <0.2 mg/L) | 4 (4: <0.2 mg/L) | 4 (4: <0.2 mg/L) | 4 (4: <1 mg/L) | 3 (3: 1-5 mg/L) | 3 (3: 1-5 mg/L) | 4 (4: <0.2 mg/L) | 3 (3: 0.2-1 mg/L) | 4 (4: <0.2 mg/L)
